Among the data in PubChem BioAssay (NCI) are GI50 and TGI values, retold here.

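Exposure lasted 48 hours, with cells grown in 96-well plates and compounds tested at five concentrations. At the GI50, growth is halved. Definition used: TGI = concentration required for complete inhibition of growth.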 A value given as a limit tells only on which side of the number the result lay.

Some test systems named below: OVCAR-8 ovarian; U251 CNS; SNB-75 CNS; HOP-62 NSCLC; IGROV1 ovarian; LOX IMVI melanoma; UACC-62 melanoma; HOP-92 NSCLC; SN12C renal; SK-MEL-5 melanoma.
Experiment in all cases: NCI anticancer screen, dose series, 48 h

With `Cn1cc(-c2csc(-c3c[nH]c4ncccc34)n2)c2cc(Br)cnc21`, the GI50 was 3.72 µM in the experiment on OVCAR-8 ovarian; 2.7 µM with U251 CNS; 2.18 µM in the experiment on SNB-75 CNS; 2.39 µM in the experiment on HOP-62 NSCLC; 2.21 µM in the experiment on IGROV1 ovarian; 4.26 µM in the experiment with LOX IMVI melanoma. In addition, the GI50 is 3.47 µM with UACC-62 melanoma and 5.03 µM with HOP-92 NSCLC. Also, the TGI with OVCAR-8 ovarian was > 100 µM; with U251 CNS, > 100 µM; in the experiment with SNB-75 CNS, 7.35 µM; with HOP-62 NSCLC, 11.6 µM; in the experiment on IGROV1 ovarian, > 100 µM; with LOX IMVI melanoma, > 100 µM. Besides, the TGI in the experiment on UACC-62 melanoma and in the experiment on HOP-92 NSCLC was > 100 µM in each case.

Consider `CC(=O)OC1C=CC2CCN3C(=O)c4cc5c(cc4[C@H]1C23)OCO5` (stereo partly specified), for which the TGI with OVCAR-8 ovarian, in the experiment on U251 CNS, in the experiment on SNB-75 CNS, in the experiment with HOP-62 NSCLC, in the experiment with SN12C renal and in the experiment with IGROV1 ovarian was > 100 µM throughout. Moreover, the TGI in the experiment on LOX IMVI melanoma and with UACC-62 melanoma was > 100 µM throughout.

As for `C=C1C(=O)OC2CCCCC3OC3C12` (stereo unspecified), the TGI worked out at 32.4 µM in the experiment on OVCAR-8 ovarian; 23 µM in the experiment on U251 CNS; 59.1 µM with SNB-75 CNS; 41.3 µM with HOP-62 NSCLC; 21.3 µM in the experiment with SN12C renal; 33.4 µM in the experiment with IGROV1 ovarian. In addition, the TGI was found to be 19.5 µM in the experiment on SK-MEL-5 melanoma, 31.9 µM in the experiment with LOX IMVI melanoma and 13.7 µM in the experiment on UACC-62 melanoma.

Take `Cc1cc2c3ccccc3n(C)c2c2c1C(=O)c1ccccc1C2=O`: the TGI in the experiment on OVCAR-8 ovarian is 76.2 µM; in the experiment with SNB-75 CNS, > 100 µM; with HOP-62 NSCLC it was 53.6 µM; with SN12C renal it was 41.7 µM; in the experiment on IGROV1 ovarian, 54.3 µM; in the experiment with UACC-62 melanoma, 57.3 µM. For the same compound, the TGI in the experiment on HOP-92 NSCLC came to 35 µM.

For the compound `Cc1cccc2c1Oc1cc(Cl)ccc1C2NC(=O)CCN1CCCCC1` (stereo unspecified), the TGI in the experiment with OVCAR-8 ovarian came to 30.2 µM; with U251 CNS it was 29.5 µM; with SNB-75 CNS, 28.1 µM; with HOP-62 NSCLC, 28.3 µM; in the experiment with SN12C renal it was 33 µM; in the experiment with SK-MEL-5 melanoma it was 30 µM. Further, the TGI came out at 30.2 µM in the experiment on LOX IMVI melanoma, 30 µM in the experiment with UACC-62 melanoma and 10.1 µM in the experiment with HOP-92 NSCLC.

Take `C/C(=N\NC(=O)CC(=O)Nc1ccc(C)cc1)c1cc2ccccc2oc1=O`: the TGI is > 100 µM with OVCAR-8 ovarian; > 100 µM in the experiment with U251 CNS; 76.6 µM in the experiment on SNB-75 CNS; > 100 µM with HOP-62 NSCLC; > 100 µM in the experiment with SN12C renal; > 100 µM in the experiment on IGROV1 ovarian. Besides, the TGI in the experiment on SK-MEL-5 melanoma, in the experiment with LOX IMVI melanoma and in the experiment with UACC-62 melanoma was > 100 µM each time.

Regarding `Fc1ccc(-c2nc(-c3nc4ccc(Cl)cc4[nH]3)cc3c2[nH]c2ccccc23)cc1`, the GI50 was 2.88 µM in the experiment with OVCAR-8 ovarian; 3.31 µM with U251 CNS; 3.87 µM in the experiment with HOP-62 NSCLC; 3.04 µM in the experiment with SN12C renal; 2.89 µM with IGROV1 ovarian; 3.52 µM in the experiment on SK-MEL-5 melanoma. Besides, the GI50 with LOX IMVI melanoma was 2.41 µM; in the experiment on UACC-62 melanoma, 2.28 µM; with HOP-92 NSCLC it was 1.56 µM. Further, the TGI came out at 10.7 µM in the experiment with OVCAR-8 ovarian; 18 µM in the experiment on U251 CNS; 16.5 µM in the experiment on HOP-62 NSCLC; 24.4 µM with SN12C renal; 12.2 µM with IGROV1 ovarian; 15.4 µM in the experiment on SK-MEL-5 melanoma. Besides, the TGI in the experiment with LOX IMVI melanoma was 6.63 µM; with UACC-62 melanoma it was 6.9 µM; in the experiment with HOP-92 NSCLC, 6.18 µM.

`O=[N+]([O-])c1cccc(C2SCc3nc4ccccc4n32)c1` (stereo unspecified): the TGI with OVCAR-8 ovarian was > 100 µM; with U251 CNS, > 100 µM; with HOP-62 NSCLC it was > 100 µM; in the experiment with SN12C renal, > 100 µM; in the experiment on IGROV1 ovarian, > 100 µM; with SK-MEL-5 melanoma, 52.8 µM. For the same compound, the TGI in the experiment with LOX IMVI melanoma, in the experiment on UACC-62 melanoma and in the experiment with HOP-92 NSCLC was > 100 µM throughout.

For `CC(=O)Nc1ccc2nncnc2c1`, the TGI with U251 CNS, in the experiment with SNB-75 CNS, in the experiment on HOP-62 NSCLC, in the experiment with SN12C renal, with IGROV1 ovarian and in the experiment on SK-MEL-5 melanoma was > 100 µM each time. The TGI with LOX IMVI melanoma and in the experiment with UACC-62 melanoma was > 100 µM each time.

Regarding `Cc1ccc2nc3c(Cl)cc(=O)cc-3sc2c1`, the TGI was determined as 43.4 µM in the experiment with OVCAR-8 ovarian; 45.5 µM with U251 CNS; 57.7 µM in the experiment with SNB-75 CNS; 38.1 µM with IGROV1 ovarian; 30.8 µM with SK-MEL-5 melanoma; 31.8 µM in the experiment on UACC-62 melanoma. This compound also displayed a TGI with HOP-92 NSCLC of 36.7 µM.

`Nc1nc(N)c2cc(CNc3ccc(Cl)c(Cl)c3)ccc2n1`: the GI50 in the experiment on OVCAR-8 ovarian is 0.513 µM; with U251 CNS, 0.433 µM; in the experiment with SNB-75 CNS it was 1.14 µM; in the experiment with HOP-62 NSCLC, 0.81 µM; in the experiment on SN12C renal, 0.732 µM; in the experiment with IGROV1 ovarian, 0.579 µM. In addition, the GI50 with SK-MEL-5 melanoma is 0.519 µM; with LOX IMVI melanoma, 0.146 µM; with UACC-62 melanoma it was 0.468 µM. Besides, the TGI was determined as 1.75 µM in the experiment on OVCAR-8 ovarian; 1.66 µM with U251 CNS; 2.36 µM in the experiment on SNB-75 CNS; 2.05 µM with HOP-62 NSCLC; 2.12 µM with SN12C renal; 1.92 µM in the experiment on IGROV1 ovarian. For the same compound, the TGI in the experiment on SK-MEL-5 melanoma amounted to 1.82 µM; in the experiment with LOX IMVI melanoma, 1.55 µM; in the experiment on UACC-62 melanoma, 1.86 µM.

As for `O=C(c1cc2ccccc2[nH]1)C(O)(c1cc2ccccc2[nH]1)c1cc2ccccc2[nH]1`, the TGI in the experiment with OVCAR-8 ovarian, with U251 CNS, in the experiment on HOP-62 NSCLC, in the experiment with SN12C renal, with IGROV1 ovarian and with SK-MEL-5 melanoma was > 246 µM in each case. The TGI with LOX IMVI melanoma, with UACC-62 melanoma and with HOP-92 NSCLC was > 246 µM each time.

As for `O=C(CC(=O)N1N=C(n2ccc3ccccc32)CC1c1ccccc1)Nc1cccc(Cl)c1` (stereo unspecified), the TGI in the experiment with OVCAR-8 ovarian, in the experiment on U251 CNS, in the experiment with SNB-75 CNS, with HOP-62 NSCLC, with SN12C renal and in the experiment with IGROV1 ovarian was > 100 µM in each case. Moreover, the TGI with LOX IMVI melanoma, with UACC-62 melanoma and in the experiment with HOP-92 NSCLC was > 100 µM throughout.
